Measured values: publication PMC12858405, “Ideal efficacy photoswitching for chromocontrol of TRPC4/5 channel functions in live tissues” (Nature Chemical Biology, 2026)

Target: T1, TRPC5-SYFP2 (Homo sapiens, UniProt Q9UL62)
T1 construct: expressed in transfected cells; host or cells: HEK 293 (ATCC CRL 1573), transiently transfected (jetPRIME)
T1 sequence (Q9UL62 1-973): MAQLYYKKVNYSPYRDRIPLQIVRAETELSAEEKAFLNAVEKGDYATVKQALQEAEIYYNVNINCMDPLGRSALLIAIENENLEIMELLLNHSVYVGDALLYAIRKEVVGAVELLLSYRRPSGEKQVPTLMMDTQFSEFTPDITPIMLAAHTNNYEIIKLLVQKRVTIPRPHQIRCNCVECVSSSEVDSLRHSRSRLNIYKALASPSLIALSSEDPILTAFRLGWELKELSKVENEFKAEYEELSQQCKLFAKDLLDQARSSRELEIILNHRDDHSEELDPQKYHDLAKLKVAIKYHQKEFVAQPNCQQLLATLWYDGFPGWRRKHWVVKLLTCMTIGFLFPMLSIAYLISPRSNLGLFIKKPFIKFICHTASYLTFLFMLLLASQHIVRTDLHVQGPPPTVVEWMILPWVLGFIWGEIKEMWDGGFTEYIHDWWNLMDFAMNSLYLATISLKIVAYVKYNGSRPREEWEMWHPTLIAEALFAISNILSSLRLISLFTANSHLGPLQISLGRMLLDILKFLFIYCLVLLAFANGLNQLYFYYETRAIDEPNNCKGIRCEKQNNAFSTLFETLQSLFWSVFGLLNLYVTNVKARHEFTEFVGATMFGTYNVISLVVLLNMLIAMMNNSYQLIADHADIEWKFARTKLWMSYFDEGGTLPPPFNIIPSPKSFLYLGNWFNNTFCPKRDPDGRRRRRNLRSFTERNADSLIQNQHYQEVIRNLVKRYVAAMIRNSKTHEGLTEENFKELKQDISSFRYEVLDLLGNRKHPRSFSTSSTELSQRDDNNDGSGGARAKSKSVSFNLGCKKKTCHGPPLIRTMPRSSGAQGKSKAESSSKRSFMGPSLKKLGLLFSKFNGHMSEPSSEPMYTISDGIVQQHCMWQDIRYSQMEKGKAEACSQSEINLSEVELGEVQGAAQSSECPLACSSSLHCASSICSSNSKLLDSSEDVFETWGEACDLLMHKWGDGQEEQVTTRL
Test: Fura-2 [Ca2+]i recordings, HEK 293 transiently expressing TRPC5-SYFP2
Assay type: cell-based
Settings: 10-1000 nM; compound plate illuminated at 380 nm; EA 100 nM as maximum
From the text: Müller, Niemeyer, et al., Schaefer & Thorn-Seshold 2025: Ideal Efficacy Photoswitching of TRPC4/5 in Tissue […]
1.4.4 Differences and selectivity between TRPC5 and TRPC4?
AM237 activates TRPC5 but inhibits EA mediated activation of TRPC4; Pico145 inhibits both TRPC4 and TRPC5. Thus, somewhat naively, it could be argued that it is the para substituent here which affects both the efficacy mode and the selectivity for TRPC4 and/or TRPC5.
Intriguingly, Z-AzPico activates TRPC4 and TRPC5 with low nanomolar potency whereas Z-AzHC only activates TRPC5 but not TRPC4. Therefore, the meta substituent is now responsible for the selectivity in this case. The cryo-EM structures of Pico145 and HC-070 in complex with TRPC5 indicated the same binding site but the southern phenyl ring bearing the OCF3/Cl group is flipped and pointing in opposite directions.
Z isomers, i.e. Z-buried vs. E-projected. Additionally, both E-AzPico and E-AzHC inhibit EA […]
It is not surprising that both ligands bind to either protein because there is a high sequence similarity among the TRPC family in the identified binding pocket for Pico145 /HC-070, and in the binding region, human TRPC4/5 differ only by a single amino acid (TRPC5: V579, TRPC4: I579). We […]
the result of differences in this residue. […]
Intracellular calcium ([Ca2+]i) was measured using the ratiometric Ca2+ dye Fura-2. […]

In the case of `Cn1c(=O)n(CCCO)c(=O)c2c1nc(Oc1ccc(Cl)c(OC(F)(F)F)c1)n2Cc1ccc(Cl)cc1` [AM237, reference compound], the “Effect on [Ca2+]i, TRPC5” value is reported as “partial agonists”.
In the case of `Cn1c(=O)n(CCCO)c(=O)c2c1nc(Oc1ccc(/N=N\c3ccccc3)c(Cl)c1)n2Cc1ccc(Cl)cc1` [Z*-AzHC], the “Effect on [Ca2+]i, TRPC5” value is reported as “partial agonists”.
